The record followed here is patent publication US7776883B2, “Quinolin-4-ones as inhibitors of retroviral integrase for the treatment of HIV, AIDS and AIDS related complex (ARC)” (The United States of America as represented by the …, priority 2004, dated 2010).

Compound `O=C(O)C(=O)CC(=O)c1cn(Cc2ccc(F)cc2)c2cc(N3CCCC3)ccc2c1=O` had a melting point of 197 to 199 °C. With `O=C(O)C(=O)CC(=O)c1cn(Cc2ccccc2)c2ccccc2c1=O` [RDS1993, 4-(1-Phenylmethyl-1,4-dihydro-4-oxoquinolin-3-yl)-2,4-dioxobutanoic acid] the figure was 141 to 142 °C; with `O=C(O)C(=O)CC(=O)c1cn(Cc2ccc([N+](=O)[O-])cc2)c2ccccc2c1=O` [RDS2018, 4-[1-(4-Nitrophenyl)methyl-1,4-dihydro-4-oxoquinolin-3-yl]-2,4-dioxobutanoic acid], 230 to 232 °C. With `CCOC(=O)C(=O)CC(=O)c1cn(Cc2ccc(O)cc2)c2ccccc2c1=O` the figure was 179 to 181 °C; with `O=C(O)C(=O)CC(=O)c1cn(Cc2ccc(O)cc2)c2ccccc2c1=O`, 206 to 208 °C. With `CCOC(=O)C(=O)CC(=O)c1cn(Cc2ccc(F)cc2)c2cc(F)ccc2c1=O` [RDS2021, 4-[1-(4-Fluorophenyl)methyl-7-fluoro-1,4-dihydro-4-oxoquinolin-3-yl]-2,4-dioxobutanoic acid ethyl ester] the figure was 151 to 152 °C. `CCOC(=O)C(=O)CC(=O)c1cn(Cc2ccc(F)cc2)c2ccc(F)cc2c1=O` [RDS2077, 4-[1-(4-Fluorophenyl)methyl-6-fluoro-1,4-dihydro-4-oxoquinolin-3-yl]-2,4-dioxobutanoic acid ethyl ester] displayed a melting point of 152 to 153 °C.

For the compound `O=C(O)C(=O)CC(=O)c1cn(Cc2cccc(F)c2)c2ccccc2c1=O` [RDS1987, 4-[1-(3-Fluorophenyl)methyl-1,4-dihydro-4-oxoquinolin-3-yl]-2,4-dioxobutanoic acid], the melting point lay within 158 to 159 °C. Regarding `O=C(O)C(=O)CC(=O)c1c[nH]c2ccccc2c1=O` [RDS1680, 4-(1,4-dihydro-4-oxoquinolin-3-yl)-2,4-dioxobutanoic acid], the melting point is above 290 °C. In turn, `O=C(O)C(=O)CC(=O)c1cn(Cc2ccc(F)cc2)c2cc(Cl)c(Cl)cc2c1=O` came in with a melting point of 175 to 177 °C. As to `O=C(O)CCc1cn(Cc2ccc(F)cc2)c2ccc(C(=O)CC(=O)C(=O)O)cc2c1=O`, the melting point was 184 to 187 °C. Take `CCOC(=O)C(=O)CC(=O)c1cn(Cc2ccccc2OC)c2ccccc2c1=O`: the melting point is 154 to 156 °C. Next, `O=C(O)C(=O)CC(=O)c1cn(Cc2ccc(F)cc2)c2cc(F)ccc2c1=O` [RDS2022, 4-[1-(4-Fluorophenyl)methyl-7-fluoro-1,4-dihydro-4-oxoquinolin-3-yl]-2,4-dioxobutanoic acid]: 162 to 163 °C. With `O=C(O)C(=O)CC(=O)c1cn(CCCCc2ccccc2)c2ccccc2c1=O` [RDS1981, 4-[1-(4-Phenylbutyl)-1,4-dihydro-4-oxoquinolin-3-yl]-2,4-dioxobutanoic acid] the figure was 136 to 138 °C; with `CCOC(=O)C(=O)CC(=O)c1cn(Cc2c(F)cccc2F)c2ccccc2c1=O` [RDS1983, 4-[1-(2,6-Difluorophenyl)methyl-1,4-dihydro-4-oxoquinolin-3-yl]-2,4-dioxobutanoic acid ethyl ester], 172 to 173 °C; with `O=C(O)C(=O)CC(=O)c1cn(Cc2ccc(F)cc2)c2c(F)cccc2c1=O`, 180 to 181 °C. In turn, `CCOC(=O)C(=O)CC(=O)c1cn(Cc2ccc([N+](=O)[O-])cc2)c2ccccc2c1=O` [RDS2017, 4-[1-(4-Nitrophenyl)methyl-1,4-dihydro-4-oxoquinolin-3-yl]-2,4-dioxobutanoic acid ethyl ester] came in with a melting point of 175 to 176 °C. With `CCOC(=O)C(=O)CC(=O)c1cn(Cc2ccc(OC)cc2)c2ccccc2c1=O` [RDS2034, 4-[1-(4-Methoxyphenyl)methyl-1,4-dihydro-4-oxoquinolin-3-yl]-2,4-dioxobutanoic acid ethyl ester] the figure was 154 to 156 °C; with `CCOC(=O)C(=O)CC(=O)c1c[nH]c2ccccc2c1=O` [RDS1675, 4-(1,4-dihydro-4-oxoquinolin-3-yl)-2,4-dioxobutanoic acid ethyl ester], 235 to 237 °C. For `CCOC(=O)C(=O)CC(=O)c1cn(Cc2ccc(Cl)cc2)c2ccccc2c1=O` [RDS2011, 4-[1-(4-Chlorophenyl)methyl-1,4-dihydro-4-oxoquinolin-3-yl]-2,4-dioxobutanoic acid ethyl ester], the melting point lay within 174 to 176 °C.

The compound `CCOC(=O)C(=O)CC(=O)c1ccc2c(c1)c(=O)c(CCC(=O)O)cn2Cc1ccc(F)cc1` gave a melting point of 177 to 180 °C. In turn, `CCOC(=O)C(=O)CC(=O)c1cn(Cc2ccc(F)cc2)c2cc(Cl)c(Cl)cc2c1=O` displayed a melting point of 144 to 145 °C.

In turn, `CCOC(=O)C(=O)CC(=O)c1cn(Cc2ccc(F)cc2)c2c(Cl)cccc2c1=O` returned a melting point of 164 to 165 °C.

The compound `COc1ccccc1Cn1cc(C(=O)CC(=O)C(=O)O)c(=O)c2ccccc21` showed a melting point of 173 to 175 °C.

On to `O=C(O)C(=O)CC(=O)c1cn(Cc2ccccc2F)c2ccccc2c1=O` [RDS1990, 4-[1-(2-Fluorophenyl)methyl-1,4-dihydro-4-oxoquinolin-3-yl]-2,4-dioxobutanoic acid], for which the melting point was 172 to 174 °C.

Compound `O=C(O)C(=O)CC(=O)c1cn(Cc2ccc(Cl)cc2)c2ccccc2c1=O` [RDS2012, 4-[1-(4-Chlorophenyl)methyl-1,4-dihydro-4-oxoquinolin-3-yl]-2,4-dioxobutanoic acid] returned a melting point of 177 to 179 °C. Next, `O=C(O)C(=O)CC(=O)c1cn(Cc2ccc3ccccc3c2)c2ccccc2c1=O` [RDS1975, 4-[1-(2-Naphthyl)methyl-1,4-dihydro-4-oxoquinolin-3-yl]-2,4-dioxobutanoic acid]: 212 to 213 °C; `O=C(O)C(=O)CC(=O)c1cn(Cc2ccc(F)cc2)c2c(Cl)cccc2c1=O`: 175 to 177 °C. With `CCOC(=O)C(=O)CC(=O)c1cn(CCCCc2ccccc2)c2ccccc2c1=O` [RDS1980, 4-[1-(4-Phenylbutyl)-1,4-dihydro-4-oxoquinolin-3-yl]-2,4-dioxobutanoic acid ethyl ester] the figure was 88 to 90 °C; with `CCOC(=O)C(=O)CC(=O)c1cn(Cc2ccccc2)c2ccccc2c1=O` [RDS1992, 4-(1-Phenylmethyl-1,4-dihydro-4-oxoquinolin-3-yl)-2,4-dioxobutanoic acid ethyl ester], 141 to 142 °C. With `COc1ccc(Cn2cc(C(=O)CC(=O)C(=O)O)c(=O)c3ccccc32)cc1` [RDS2035, 4-[1-(4-Methoxyphenyl)methyl-1,4-dihydro-4-oxoquinolin-3-yl]-2,4-dioxobutanoic acid] the figure was 149 to 150 °C. Compound `O=C(O)C(=O)CC(=O)c1cn(Cc2ccc(F)cc2)c2ccc(F)cc2c1=O` [RDS2078, 4-[1-(4-Fluorophenyl)methyl-6-fluoro-1,4-dihydro-4-oxoquinolin-3-yl]-2,4-dioxobutanoic acid] showed a melting point of 183 to 184 °C.

`CCOC(=O)C(=O)CC(=O)c1cn(Cc2cccc(OC)c2)c2ccccc2c1=O`: the melting point lay in the range of 177 to 179 °C. With `CCOC(=O)C(=O)CC(=O)c1cn(Cc2ccc(F)cc2)c2c(F)cccc2c1=O` the figure was 179 to 180 °C; with `CCOC(=O)C(=O)CC(=O)c1cn(Cc2ccc3ccccc3n2)c2ccccc2c1=O` [RDS1999, 4-[1-(2-Quinolinyl)methyl-1,4-dihydro-4-oxoquinolin-3-yl]-2,4-dioxobutanoic acid ethyl ester], 237 to 238 °C. Take `CCOC(=O)C(=O)CC(=O)c1cn(Cc2cccc(F)c2)c2ccccc2c1=O` [RDS1986, 4-[1-(3-Fluorophenyl)methyl-1,4-dihydro-4-oxoquinolin-3-yl]-2,4-dioxobutanoic acid ethyl ester]: the melting point fell in the range of 174 to 175 °C. As to `CCOC(=O)C(=O)CC(=O)c1cn(Cc2ccccc2F)c2ccccc2c1=O` [RDS1989, 4-[1-(2-Fluorophenyl)methyl-1,4-dihydro-4-oxoquinolin-3-yl]-2,4-dioxobutanoic acid ethyl ester], the melting point is 152 to 153 °C.

Turning to `COc1cccc(Cn2cc(C(=O)CC(=O)C(=O)O)c(=O)c3ccccc32)c1`, the melting point lay in the range of 179 to 181 °C. With `O=C(O)C(=O)CC(=O)c1cn(Cc2ccc3ccccc3n2)c2ccccc2c1=O` [RDS2000, 4-[1-(2-Quinolinyl)methyl-1,4-dihydro-4-oxoquinolin-3-yl]-2,4-dioxobutanoic acid] the figure was above 300 °C; with `O=C(O)C(=O)CC(=O)c1cn(Cc2ccccc2F)c2cc(Cl)ccc2c1=O`, 187 to 189 °C; with `CCOC(=O)C(=O)CC(=O)c1cn(Cc2ccccc2F)c2cc(Cl)ccc2c1=O`, 173 to 175 °C.

`O=C(O)C(=O)CC(=O)c1cn(Cc2c(F)cccc2F)c2ccccc2c1=O` [RDS1984, 4-[1-(2,6-Difluorophenyl)methyl-1,4-dihydro-4-oxoquinolin-3-yl]-2,4-dioxobutanoic acid] came in with a melting point of 171 to 172 °C. Next, `CCOC(=O)C(=O)CC(=O)c1cn(Cc2ccc3ccccc3c2)c2ccccc2c1=O` [RDS1974, 4-[α-(2-Naphthyl)methyl-1,4-dihydro-4-oxoquinolin-3-yl]-2,4-dioxobutanoic acid ethyl ester]: 153 to 154 °C.
